This passage reports IC50 results from patent US20260070945A1, “MACROCYCLIC IMMUNOMODULATORS” (Bristol-Myers Squibb Company, priority 2022, published 2026).

Where a SMILES comes first, the peptide text is derived from it. Bridges are numbered along the chain shown (N, C = ends). [ ]: non-standard residue; d: D form. The star is where a group is joined. Tyr(3,5-F2) = N[C@@H](Cc1cc(F)c(O)c(F)c1)C(=O)O; Phe(4-COOH) = N[C@@H](Cc1ccc(C(=O)O)cc1)C(=O)O; Tyr(3-Cl) = N[C@@H](Cc1ccc(O)c(Cl)c1)C(=O)O; Bip = N[C@@H](Cc1ccc(-c2ccccc2)cc1)C(=O)O; Phe(3-Cl) = N[C@@H](Cc1cccc(Cl)c1)C(=O)O; Phe(3-Me) = Cc1cccc(C[C@H](N)C(=O)O)c1; Phe(2-Me) = Cc1ccccc1C[C@H](N)C(=O)O; Val(3-OH) = CC(C)(O)[C@H](N)C(=O)O; 2Thi = N[C@@H](Cc1cccs1)C(=O)O; Aad = N[C@@H](CCCC(=O)O)C(=O)O; Cha = N[C@@H](CC1CCCCC1)C(=O)O; Gly(cPr) = N[C@H](C(=O)O)C1CC1; Phg = N[C@H](C(=O)O)c1ccccc1; Carboxymethyl = O=C(O)C*; NMeA = CN[C@@H](C)C(=O)O; Aun = NCCCCCCCCCCC(=O)O; Dab = NCC[C@H](N)C(=O)O

T1 sequence (Q15116 25-288): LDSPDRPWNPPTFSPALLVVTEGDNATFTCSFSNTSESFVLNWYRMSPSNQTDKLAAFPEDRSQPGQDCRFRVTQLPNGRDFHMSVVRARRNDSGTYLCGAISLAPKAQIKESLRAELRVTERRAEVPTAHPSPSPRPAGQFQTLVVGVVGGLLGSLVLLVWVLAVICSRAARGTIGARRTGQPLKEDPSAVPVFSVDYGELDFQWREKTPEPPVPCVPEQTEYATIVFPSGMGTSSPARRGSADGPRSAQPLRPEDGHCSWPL

This assay concerns the target T1, PD-1/PD-L1 interaction (PE-labeled human PD-L1-Ig binding to Jurkat cell line over-expressing human PD-1) (Homo sapiens, UniProt Q15116).
T1 construct: expressed in transfected cells; host or cells: Jurkat
Description: Jurkat-PD-1 Cell Binding High-Content Screening Assay (CBA). Particulars: Jurkat-hPD-1 cells, PE-labeled PD-L1-Ig 20 nM final; read-out: Jurkat HPD1 PDL1 IC50. In outline: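 In this imaging assay, cells in 10% FCS medium see compound for 2 h at 37 °C and then labeled ligand at 20 nM final for 1 h. Paraformaldehyde fixation, Hoechst 33342 staining and dPBS washes precede image capture.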
As for `Cc1cccc(C[C@@H]2NC(=O)[C@H](CC(=O)O)NC(=O)[C@H](Cc3ccc(C(=O)O)cc3)NC(=O)[C@H](CCN)NC(=O)CSC[C@@H](C(=O)N[C@@H](CCN)C(=O)NCCCCCCCCCCC(=O)O)NC(=O)[C@H](CO)NC(=O)[C@H](C(C)(C)O)NC(=O)[C@H](CC3CCCCC3)NC(=O)[C@H](CCN)NC(=O)[C@@H](CC(C)C)NC(=O)[C@H](C)N(C)C(=O)[C@H](Cc3ccc(OCC(=O)O)cc3)NC(=O)[C@H](Cc3ccc(-c4ccccc4)cc3)NC(=O)[C@H](Cc3cc(F)c(O)c(F)c3)NC2=O)c1` [Example 1290] ({CH2CO}-[Dab][Phe(4-COOH)]D[Phe(3-Me)][Tyr(3,5-F2)][Bip]Y(Carboxymethyl)[NMeA][dL][Dab][Cha][Val(3-OH)]SC[Dab][Aun]-OH; thioether N-14), the IC50 (commonly the concentration that inhibits the measured activity by half) stood at 20.1 nM.
Consider `COc1ccc(C[C@@H]2NC(=O)[C@H](Cc3cccc(C)c3)NC(=O)[C@H](CC(=O)O)NC(=O)[C@H](Cc3ccc(C(=O)O)cc3)NC(=O)[C@H](CCN)NC(=O)CSC[C@@H](C(=O)N[C@@H](CCN)C(=O)NCCCCCCCCCCC(=O)O)NC(=O)[C@H](CO)NC(=O)[C@H](C(C)(C)O)NC(=O)[C@H](CC3CCCCC3)NC(=O)[C@H](CCN)NC(=O)[C@@H](CC(C)C)NC(=O)[C@H](C)N(C)C(=O)[C@H](Cc3ccc(OCC(=O)O)cc3)NC(=O)[C@H](Cc3ccc(-c4ccccc4)cc3)NC2=O)cc1` [Example 1291] ({CH2CO}-[Dab][Phe(4-COOH)]D[Phe(3-Me)]Y(Me)[Bip]Y(Carboxymethyl)[NMeA][dL][Dab][Cha][Val(3-OH)]SC[Dab][Aun]-OH; thioether N-14), for which the IC50 stood at 22.7 nM.
With `Cc1cccc(C[C@@H]2NC(=O)[C@H](CC(=O)O)NC(=O)[C@H](Cc3ccc(C(=O)O)cc3)NC(=O)[C@H](CCN)NC(=O)CSC[C@@H](C(=O)N[C@@H](CCN)C(=O)NCCCCCCCCCCC(=O)O)NC(=O)[C@H](CO)NC(=O)[C@H](C(C)(C)O)NC(=O)[C@H](CC3CCCCC3)NC(=O)[C@H](CCN)NC(=O)[C@@H](CC(C)C)NC(=O)[C@H](C)N(C)C(=O)[C@H](Cc3ccc(OCC(=O)O)cc3)NC(=O)[C@H](Cc3ccc(-c4ccccc4)cc3)NC(=O)[C@H](c3ccccc3)NC2=O)c1` [Example 1292] ({CH2CO}-[Dab][Phe(4-COOH)]D[Phe(3-Me)][Phg][Bip]Y(Carboxymethyl)[NMeA][dL][Dab][Cha][Val(3-OH)]SC[Dab][Aun]-OH; thioether N-14), the IC50 stood at 96.9 nM.
In the case of `Cc1cccc(C[C@@H]2NC(=O)[C@H](CC(=O)O)NC(=O)[C@H](Cc3ccc(C(=O)O)cc3)NC(=O)[C@H](CCN)NC(=O)CSC[C@@H](C(=O)N[C@@H](CCN)C(=O)NCCCCCCCCCCC(=O)O)NC(=O)[C@H](CO)NC(=O)[C@H](C(C)(C)O)NC(=O)[C@H](CC3CCCCC3)NC(=O)[C@H](CCN)NC(=O)[C@@H](CC(C)C)NC(=O)[C@H](C)N(C)C(=O)[C@H](Cc3ccc(OCC(=O)O)cc3)NC(=O)[C@H](Cc3ccc(-c4ccccc4)cc3)NC(=O)[C@H](Cc3ccc(O)c(Cl)c3)NC2=O)c1` [Example 1293] ({CH2CO}-[Dab][Phe(4-COOH)]D[Phe(3-Me)][Tyr(3-Cl)][Bip]Y(Carboxymethyl)[NMeA][dL][Dab][Cha][Val(3-OH)]SC[Dab][Aun]-OH; thioether N-14) it was 35.8 nM; in that of `Cc1cccc(C[C@@H]2NC(=O)[C@H](CC(=O)O)NC(=O)[C@H](Cc3ccc(C(=O)O)cc3)NC(=O)[C@H](CCN)NC(=O)CSC[C@@H](C(=O)N[C@@H](CCN)C(=O)NCCCCCCCCCCC(=O)O)NC(=O)[C@H](CO)NC(=O)[C@H](C(C)(C)O)NC(=O)[C@H](CC3CCCCC3)NC(=O)[C@H](CCN)NC(=O)[C@@H](CC(C)C)NC(=O)[C@H](C)N(C)C(=O)[C@H](Cc3ccc(OCC(=O)O)cc3)NC(=O)[C@H](Cc3ccc(-c4ccccc4)cc3)NC(=O)[C@H](Cc3cccs3)NC2=O)c1` [Example 1294] ({CH2CO}-[Dab][Phe(4-COOH)]D[Phe(3-Me)][2Thi][Bip]Y(Carboxymethyl)[NMeA][dL][Dab][Cha][Val(3-OH)]SC[Dab][Aun]-OH; thioether N-14), 11.6 nM.
The figure for `Cc1cccc(C[C@@H]2NC(=O)[C@H](CC(=O)O)NC(=O)[C@H](Cc3ccc(C(=O)O)cc3)NC(=O)[C@H](CCN)NC(=O)CSC[C@@H](C(=O)N[C@@H](CCN)C(=O)NCCCCCCCCCCC(=O)O)NC(=O)[C@H](CO)NC(=O)[C@H](C(C)(C)O)NC(=O)[C@H](CC3CCCCC3)NC(=O)[C@H](CCN)NC(=O)[C@@H](CC(C)C)NC(=O)[C@H](C)N(C)C(=O)[C@H](Cc3ccc(OCC(=O)O)cc3)NC(=O)[C@H](Cc3ccc(-c4ccccc4)cc3)NC(=O)[C@H](C3CC3)NC2=O)c1` [Example 1295] ({CH2CO}-[Dab][Phe(4-COOH)]D[Phe(3-Me)][Gly(cPr)][Bip]Y(Carboxymethyl)[NMeA][dL][Dab][Cha][Val(3-OH)]SC[Dab][Aun]-OH; thioether N-14) is 11.2 nM.
The figure for `Cc1cccc(C[C@@H]2NC(=O)[C@H](CC(=O)O)NC(=O)[C@H](Cc3ccc(C(=O)O)cc3)NC(=O)[C@H](CCN)NC(=O)CSC[C@@H](C(=O)N[C@@H](CCN)C(=O)NCCCCCCCCCCC(=O)O)NC(=O)[C@H](CO)NC(=O)[C@H](C(C)(C)O)NC(=O)[C@H](CC3CCCCC3)NC(=O)[C@H](CCN)NC(=O)[C@@H](CC(C)C)NC(=O)[C@H](C)N(C)C(=O)[C@H](Cc3ccc(OCC(=O)O)cc3)NC(=O)[C@H](Cc3ccc(-c4ccccc4)cc3)NC(=O)[C@H](Cc3ccccc3C)NC2=O)c1` [Example 1296] ({CH2CO}-[Dab][Phe(4-COOH)]D[Phe(3-Me)][Phe(2-Me)][Bip]Y(Carboxymethyl)[NMeA][dL][Dab][Cha][Val(3-OH)]SC[Dab][Aun]-OH; thioether N-14) is 48.7 nM.
`Cc1cccc(C[C@@H]2NC(=O)[C@H](CC(=O)O)NC(=O)[C@H](Cc3ccc(C(=O)O)cc3)NC(=O)[C@H](CCN)NC(=O)CSC[C@@H](C(=O)N[C@@H](CCN)C(=O)NCCCCCCCCCCC(=O)O)NC(=O)[C@H](CO)NC(=O)[C@H](C(C)(C)O)NC(=O)[C@H](CC3CCCCC3)NC(=O)[C@H](CCN)NC(=O)[C@@H](CC(C)C)NC(=O)[C@H](C)N(C)C(=O)[C@H](Cc3ccc(OCC(=O)O)cc3)NC(=O)[C@H](Cc3ccc(-c4ccccc4)cc3)NC(=O)[C@H](Cc3cccc(Cl)c3)NC2=O)c1` [Example 1297] ({CH2CO}-[Dab][Phe(4-COOH)]D[Phe(3-Me)][Phe(3-Cl)][Bip]Y(Carboxymethyl)[NMeA][dL][Dab][Cha][Val(3-OH)]SC[Dab][Aun]-OH; thioether N-14): the IC50 worked out at 33.3 nM.
With `Cc1cccc(C[C@@H]2NC(=O)[C@H](CC(=O)O)NC(=O)[C@H](Cc3ccc(C(=O)O)cc3)NC(=O)[C@H](CCN)NC(=O)CSC[C@@H](C(=O)N[C@@H](CCN)C(=O)NCCCCCCCCCCC(=O)O)NC(=O)[C@H](CO)NC(=O)[C@H](C(C)(C)O)NC(=O)[C@H](CC3CCCCC3)NC(=O)[C@H](CCN)NC(=O)[C@@H](CC(C)C)NC(=O)[C@H](C)N(C)C(=O)[C@H](Cc3ccc(OCC(=O)O)cc3)NC(=O)[C@H](Cc3ccc(-c4ccccc4)cc3)NC(=O)[C@H](CCCC(=O)O)NC2=O)c1` [Example 1298] ({CH2CO}-[Dab][Phe(4-COOH)]D[Phe(3-Me)][Aad][Bip]Y(Carboxymethyl)[NMeA][dL][Dab][Cha][Val(3-OH)]SC[Dab][Aun]-OH; thioether N-14), the IC50 was found to be 16.4 nM.
